# Test results as given in ChEMBL document CHEMBL1201862, “PubChem BioAssay data set” (2004).
#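 Each compound was tested at five concentrations against cells in 96-well plates for 48 hours. GI50 marks 50% less growth.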 Activity calls are given as the source filed them. Rule as the data show it: active = GI50 up to about 1.1 µM and inactive = higher.
# What was measured:
# Assay in all cases: growth of human tumour cells (NCI), 48 h
# [1] = tested on: PC-3
# [2] = tested on: MCF7
# [3] = tested on: SNB-19
# [4] = tested on: UACC-62
# [5] = tested on: SK-OV-3
# [6] = tested on: ACHN
# [7] = tested on: RPMI-8226
# [8] = tested on: SN12C
# [9] = tested on: HT-29
# [10] = tested on: OVCAR-5
# [11] = tested on: OVCAR-4
# [12] = tested on: HCT-116
# [13] = tested on: SF-539
# [14] = tested on: OVCAR-3
# [15] = tested on: EKVX
# [16] = tested on: NCI-H23
# [17] = tested on: CAKI-1
# [18] = tested on: A498
# [19] = tested on: OVCAR-8
# [20] = tested on: HCT-15
Compound,GI50 [1],GI50 [2],GI50 [3],GI50 [4],GI50 [5],GI50 [6],GI50 [7],GI50 [8],GI50 [9],GI50 [10],GI50 [11],GI50 [12],GI50 [13],GI50 [14],GI50 [15],GI50 [16],GI50 [17],GI50 [18],GI50 [19],GI50 [20] [µM]
C=CS(=O)(=O)c1c2cc(OC)ccc2nc2ccc(OC)cc12,7.29 µM (inactive),2.94 µM (inactive),12.6 µM (inactive),12.2 µM (inactive),17.7 µM (inactive),3.35 µM (inactive),2.37 µM (inactive),2.88 µM (inactive),2.54 µM (inactive),6.14 µM (inactive),13.1 µM (inactive),2.11 µM (inactive),2.51 µM (inactive),2.82 µM (inactive),8.32 µM (inactive),4.02 µM (inactive),4.22 µM (inactive),12.7 µM (inactive),3.6 µM (inactive),3.31
Clc1nc(Cl)nc(Nc2cccc3ccccc23)n1,> 10 µM (inactive),> 10 µM (inactive),> 10 µM (inactive),> 10 µM (inactive),> 10 µM (inactive),> 10 µM (inactive),> 10 µM (inactive),> 10 µM (inactive),> 10 µM (inactive),> 10 µM (inactive),> 10 µM (inactive),> 10 µM (inactive),> 10 µM (inactive),0.0436 µM (active),> 10 µM (inactive),> 10 µM (inactive),> 10 µM (inactive),> 10 µM (inactive),> 10 µM (inactive),> 10
CC1OC(OC2C(O[C@@H]3C[C@@H]4CC[C@@H]5[C@H](CC[C@]6(C)C7C(C[C@@H]56)O[C@]5(CC[C@@H](C)CO5)[C@H]7C)[C@@]4(C)C[C@H]3O)OC(CO)C(O)C2O)C(O)C(O)C1O (stereo not given in full),1.76 µM (inactive),1.85 µM (inactive),2.41 µM (inactive),1.74 µM (inactive),1.89 µM (inactive),1.75 µM (inactive),2.28 µM (inactive),1.71 µM (inactive),1.62 µM (inactive),1.57 µM (inactive),2.23 µM (inactive),1.81 µM (inactive),1.64 µM (inactive),1.8 µM (inactive),1.92 µM (inactive),1.82 µM (inactive),2.06 µM (inactive),2.3 µM (inactive),1.86 µM (inactive),1.87
